The test addresses Cannabinoid receptor 1 (Cricetulus griseus, UniProt Q99NU1). The test is described as follows: CB1 Receptor Binding Assay (In Vitro). The protocol: The target compounds were evaluated using a binding assay towards the CB1 receptor expressed on the membranes of Chinese hamster ovarian (CHO) cells. […] The potent synthetic cannabinoid agonist, [3H]-CP55940, was used as a radioligand (Figure 1). The CHO cells were incubated in 96-well microtiter plates. Various concentrations of the synthesised cannabinoid ligands were added and incubated for 10 min at 37°C. […] The cells were lysed and scintillation fluid was added. […] There were three parallels in the tests.

As usually defined, the IC50 is the concentration needed to halve the response being measured.

Cannabinoid receptor 1, sequence (Q99NU1 whole entry): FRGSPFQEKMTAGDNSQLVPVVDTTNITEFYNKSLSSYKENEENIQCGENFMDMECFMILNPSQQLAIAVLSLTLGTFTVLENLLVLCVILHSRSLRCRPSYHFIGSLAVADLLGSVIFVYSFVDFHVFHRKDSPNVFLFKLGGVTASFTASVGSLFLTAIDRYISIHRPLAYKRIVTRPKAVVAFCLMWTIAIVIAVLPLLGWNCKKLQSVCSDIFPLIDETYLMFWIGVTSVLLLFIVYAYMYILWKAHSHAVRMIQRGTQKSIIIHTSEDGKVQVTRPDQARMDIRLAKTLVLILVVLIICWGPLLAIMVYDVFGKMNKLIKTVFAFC

With `CCN(CC)CCCNC(=O)c1nn(-c2ccc(Cl)cc2Cl)c(-c2ccc(Cl)cc2)c1C` [5-(4-Chlorophenyl)-1-(2,4-dichlorophenyl)-4-methyl-N-[3-(N,N-diethylamino)propyl]-1H-pyrazol-3-carboxamide (12c)], the IC50 is greater than 1000 nM.
`COc1ccc2ccc(CCNC(=O)c3nn(-c4ccc(Cl)cc4Cl)c(-c4ccc(Cl)cc4)c3C)cc2c1` [5-(4-Chlorophenyl)-1-(2,4-dichlorophenyl)-4-methyl-N-[2-(7-methoxynaphthalen-2-yl)ethyl]-1H-pyrazol-3-carboxamide (12g)] gave an IC50 of 398 nM.
The value for `Cc1c(C(=O)NCCCN2CCCC2)nn(-c2ccc(Cl)cc2Cl)c1-c1ccc(Cl)cc1` [5-(4-Chlorophenyl)-1-(2,4-dichlorophenyl)-4-methyl-N-(3-(pyrrolidin-1-yl)propyl)-1H-pyrazole-3-carboxamide (12e)] was 672 nM.
`Cc1c(C(=O)NC2CCC(C)CC2)nn(-c2ccc(Cl)cc2Cl)c1-c1ccc(Cl)cc1` (centres undefined) [5-(4-chlorophenyl)-1-(2,4-dichlorophenyl)-4-methyl-N-(4-methylcyclohexyl)-1H-pyrazol-3-carboxamide (12d)]: the IC50 is 4.31 nM.
The value for `Cc1c(C(=O)NN2CCCCCC2)nn(-c2ccccn2)c1-c1ccc(Cl)cc1` [5-(4-Chlorophenyl)-4-methyl-1-(pyridin-2-yl)-N-(azepan-1-yl)-1H-pyrazole-3-carboxamide (12i)] was 382 nM; that for `Cc1c(C(=O)NN2CCCCCC2)nn(-c2ccc(C(F)(F)F)cc2)c1-c1ccc(Cl)cc1` [5-(4-Chlorophenyl)-4-methyl-1-[4-(trifluoromethyl)phenyl]-N-(azepan-1-yl)-1H-pyrazole-3-carboxamide (12l)] was 98.3 nM.
The value for `Cc1c(C(=O)NC2CCC(C)CC2)nn(-c2ccc(C(F)(F)F)cc2)c1-c1ccc(Cl)cc1` (centres undefined) [5-(4-Chlorophenyl)-4-methyl-1-[4-(trifluoromethyl)phenyl]-N-(4-methylcyclohexyl)-1H-pyrazole-3-carboxamide (12m)] was 79 nM; that for `Cc1c(C(=O)NCCCN2CCOCC2)nn(-c2ccc(Cl)cc2Cl)c1-c1ccc(Cl)cc1` [5-(4-Chlorophenyl)-1-(2,4-dichlorophenyl)-4-methyl-N-[3-(4-morpholinyl)propyl]-1H-pyrazole-3-carboxamide (12b)] was 455 nM.
In turn, `Cc1c(C(=O)NCCCCN2CCCCC2)nn(-c2ccc(Cl)cc2Cl)c1-c1ccc(Cl)cc1` [5-(4-Chlorophenyl)-1-(2,4-dichlorophenyl)-4-methyl-N-(4-(piperidin-1-yl)butyl)-1H-pyrazole-3-carboxamide (12f)] yielded an IC50 greater than 1000 nM.
`Cc1c(C(=O)NC2CCC(C)CC2)nn(-c2ccccn2)c1-c1ccc(Cl)cc1` (centres undefined) [5-(4-Chlorophenyl)-4-methyl-1-(pyridin-2-yl)-N-(4-methylcyclohexyl)-1H-pyrazole-3-carboxamide (12j)] yielded a concentration for half-maximal inhibition (IC50) of 612 nM.
Take `Cc1c(C(=O)NN2CCN(C)CC2)nn(-c2ccc(Cl)cc2Cl)c1-c1ccc(Cl)cc1` [5-(4-Chlorophenyl)-1-(2,4-dichlorophenyl)-4-methyl-N-(4-methylpiperazin-1-yl)-1H-pyrazole-3-carboxamide (12a)]: the IC50 stood at 173 nM.
Then `Cc1c(C(=O)NN2CCCCC2)nn(-c2ccccn2)c1-c1ccc(Cl)cc1` [5-(4-Chlorophenyl)-4-methyl-1-(pyridin-2-yl)-N-(piperidin-1-yl)-1H-pyrazole-3-carboxamide (12h)], with 510 nM; and `Cc1c(CN(CC(=O)O)Cc2nn(-c3ccc(Cl)cc3Cl)c(-c3ccc(Cl)cc3)c2C)nn(-c2ccc(Cl)cc2Cl)c1-c1ccc(Cl)cc1` [[2-Bis-[[5-(4-chlorophenyl)-1-(2,4-dichlorophenyl)-4-methyl-1H-pyrazol-3-yl]methyl]amino] acetic acid (13c)], with 516 nM.
The value for `Cc1c(C(=O)NN2CCCCC2)nn(-c2ccc(C(F)(F)F)cc2)c1-c1ccc(Cl)cc1` [5-(4-Chlorophenyl)-4-methyl-1-[4-(trifluoromethyl)phenyl]-N-(piperidin-1-yl)-1H-pyrazole-3-carboxamide (12k)] was 93.4 nM.

Values taken from BindingDB's records for doi:10.3109/14756366.2010.491794 (Nanchang University School of Pharmaceutical Science, 2011).
